Patent publication US20240327426A1, “CRYSTALLINE FORMS OF CEFTIBUTEN” (QPEX BIOPHARMA, INC., priority 2021, published 2024)

Legend:
Type in all cases: physicochemical
[1] = Form stability upon storage/shipping at ambient temperature and humidity
Experimental: (§1) In a reaction vessel are charged 400 mL of demineralized water, 37.0 g crude Ceftibuten and 190 mL acetone at 20-25° C. To this mixture is added with stirring a solution of 22.1 g NaHCO3 and 252.2 mL of demineralized water, keeping the pH at 6.5-6.9. The pH is then adjusted to 6.5-6.7 using 15% aqueous H2SO4. To the resulting solution are charged 13.8 g aluminum oxide, 5 g Norit charcoal, 1.5 g Na2S2O4 and 0.25 g disodium EDTA. The mixture is stirred for 20-25 min maintaining pH at 6.5-6.7 with 15% aqueous H2SO4, and is then filtered and washed with 200 mL of demineralized water. The filtrate is added over 20-30 min to a second vessel containing 630 mL water, 81 g malic acid and 175 g 15% aqueous H2SO4, maintaining the temperature at 20-25° C. After stirring for 50-70 min, the pH is adjusted to 2.9-3.1 over 20-25 min at 20-25° C. with a solution constituted by 30 g of K2CO3 and 70 g of demineralized water. This mixture is stirred for 2-2.5 hours, after which it is filtered and washed 5 times with demineralized water (250 mL each). The wet product is dried at 30° C. in a vacuum oven. Depending on the extent of drying, the resulting product may be Form A, Form B, or a mixture of Forms A and B. Three batches prepared by this procedure are shown in Table 1 below.

[2] = Moisture sorption-desorption (dynamic vapor sorption) analysis; conditions: for Crystalline form after moisture sorption-desorption analysis: 25° C., 5 to 95% RH adsorption and 95 to 5% RH desorption, 10% RH steps
Experimental: In one embodiment, moisture sorption-desorption analyses were taken after running the moisture sorption-desorption experiments. […] DVS analysis was carried out TA Instruments Q5000 Dynamic Vapor Sorption analyzer. The instrument was calibrated with standard weights and a sodium bromide standard for humidity. Samples were analyzed at 25° C. with a maximum equilibration time of 60 minutes in 10% relative humidity (RH) steps from 5 to 95% RH (adsorption cycle) and from 95 to 5% RH (desorption cycle).

[3] = Differential scanning calorimetry (DSC); conditions: 25° C. to 350° C. at 10° C. per minute, nitrogen purge
Experimental: DSC analysis was carried out using a TA Instruments Q2500 Discovery Series instrument. The instrument temperature calibration was performed using indium. The DSC cell was kept under a nitrogen purge of ˜50 mL per minute during the analysis. The sample was placed in a standard, crimped, aluminum pan and was heated from approximately 25° C. to 350° C. at a rate of 10° C. per minute.

[4] = Physical stability under relative humidity conditions, checked by X-ray powder diffraction
Text: In some embodiments, Form A of the compound of Formula (I) may contain between two to three molar equivalents of water. Samples of Form A of the compound of Formula (I) were exposed to several relative humidity conditions ranging from 15% to 100% relative humidity for a period of 14 days, after which an X-ray powder diffraction was taken. In one embodiment, samples Form A of the compound of Formula (I) were exposed to several relative humidity conditions, including 15% relative humidity, 30% relative humidity, 45% relative humidity, 60% relative humidity, 75% relative humidity, and 100% relative humidity for a period of 14 days, after which an X-ray powder diffraction was taken. […] In some embodiments, Form B of the compound of Formula (I) may contain between two to three molar equivalents of water. […] X-ray diffraction was used to characterize the compound of Formula (I). A Rigaku Smart-Lab X-ray diffraction system was configured for reflection Bragg-Brentano geometry using a line source X-ray beam. The x-ray source was a Cu Long Fine Focus tube that may be operated at 40 kV and 44 mA. That source provides an incident beam profile at the sample that changes from a narrow line at high angles to a broad rectangle at low angles. […] Each sample was analyzed from 2 to 40° 2θ using a continuous scan of 6° 2θ per minute with an effective step size of 0.02° 2θ.

[5] = Karl Fischer moisture content of ceftibuten hydrate batches; conditions: batches prepared by procedure of Example 1, dried at 30° C. in a vacuum oven
Experimental: as §1
Karl Fischer analyses were carried out using a Mettler-Toledo C20 Coulometric KF titrator. The instrument was calibrated using a Hydranal water standard containing 1% water. The titrant was a Hydranal methanol solution.

Nc1nc(/C(=C/CC(=O)O)C(=O)N[C@@H]2C(=O)N3C(C(=O)O)=CCS[C@H]23)cs1 [Form B, ceftibuten]
Crystalline form change / stability upon storage/shipping [1]: increased stability | Hygroscopicity [2]: moderately hygroscopic | Crystalline form after moisture sorption-desorption analysis [2]: remain stable and unchanged | Dehydration temperature during heating [3]: approximately 100 °C

Nc1nc(/C(=C/CC(=O)O)C(=O)N[C@@H]2C(=O)N3C(C(=O)O)=CCS[C@H]23)cs1 [Form A, ceftibuten]
Hygroscopicity [2]: moderately hygroscopic | Crystalline form after moisture sorption-desorption analysis [2]: convert to Form B | Form conversion under extremely dry conditions ([4]; 0% relative humidity): may convert to Form B | X-ray powder diffraction form after relative humidity exposure ([4]; 15%, 30%, 45%, 60%, 75% and 100% relative humidity, 14 days): match for Form A | Dehydration temperature during heating [3]: approximately 100 °C

Nc1nc(/C(=C/CC(=O)O)C(=O)N[C@@H]2C(=O)N3C(C(=O)O)=CCS[C@H]23)cs1 [Batch 2, ceftibuten]
Moisture Content ([5]; listed as 2): 8.60%

Nc1nc(/C(=C/CC(=O)O)C(=O)N[C@@H]2C(=O)N3C(C(=O)O)=CCS[C@H]23)cs1 [Batch 1, ceftibuten]
Crystalline form change / stability upon storage/shipping [1]: converted from a mixture to all Form B | Moisture Content [5]: 9.44%

Nc1nc(/C(=C/CC(=O)O)C(=O)N[C@@H]2C(=O)N3C(C(=O)O)=CCS[C@H]23)cs1 [Batch 3, ceftibuten]
Moisture Content ([5]; listed as 3): 11.68%
